# Results published in patent publication US8217029B2, “Oxazolidinone antibiotics” (Actelion Pharmaceuticals Ltd, priority 2007, dated 2012).
# Test system: S aureus A798
# Assay: Minimal inhibitory concentration (MIC), microdilution method in cation-adjusted Mueller-Hinton Broth following NCCLS guidelines
# Format: cell-based
# Conditions: pH of test medium 7.2-7.3
# Outline: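 MICs (mg/l) came from NCCLS-guided microdilution, using cation-adjusted Mueller-Hinton medium adjusted to pH 7.2-7.3.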
Compound,MIC S aureus A798,MIC [µg/mL]
"COc1ccc2nccc(N3CC(CNC(=O)[C@@H]4CN(c5ccc6c(c5)OCCO6)C(=O)O4)C3)c2n1 [Example 2, (S)-3-(2,3-Dihydro-benzo[1,4]dioxin-6-yl)-2-oxo-oxazolidine-5-carboxylic acid[1-(6-methoxy-[1,5]naphthyridin-4-yl)-azetidin-3-ylmethyl]-amide]",4 µg/mL,
"COc1ccc2nccc(N3CC(N(C)C[C@@H]4CN(c5ccc(Br)c(C)c5)C(=O)O4)C3)c2n1 [Example 143, (R)-3-(4-Bromo-3-methyl-phenyl)-5-({[1-(6-methoxy-[1,5]naphthyridin-4-yl)-azetidin-3-yl]-methyl-amino}-methyl)-oxazolidin-2-one]",,≤ 0.031
"COc1ccc2nccc(N3CC[C@@H](NCCC4CN(c5ccc6c(c5)NC(=O)CS6)C(=O)O4)C3)c2n1 (mixture of isomers) [Example 87, 6-((RS)-5-{2-[(R)-1-(6-Methoxy-[1,5]naphthyridin-4-yl)-pyrrolidin-3-ylamino]-ethyl}-2-oxo-oxazolidin-3-yl)-4H-benzo[1,4]thiazin-3-one]",,≤ 0.031
"COc1ccc2nccc(N3CCCN(C[C@@H]4CN(c5ccc(C)c(F)c5)C(=O)O4)CC3)c2n1 [Example 108, (R)-3-(3-Fluoro-4-methyl-phenyl)-5-[4-(6-methoxy-[1,5]naphthyridin-4-yl)-[1,4]diazepan-1-ylmethyl]-oxazolidin-2-one]",,0.25
"COc1ccc2nccc(N3CCC(CNC[C@@H]4CN(c5ccc6c(c5)NC(=O)CS6)C(=O)O4)C3)c2n1 (mixture of isomers) [Example 80, 6-[(R)-5-({[(RS)-1-(6-Methoxy-[1,5]naphthyridin-4-yl)-pyrrolidin-3-ylmethyl]-amino}-methyl)-2-oxo-oxazolidin-3-yl]-4H-benzo[1,4]thiazin-3-one]",,≤ 0.031
"COc1ccc2nccc(N3CCCN(C(=O)[C@@H]4CN(c5ccc6c(c5)OCCO6)C(=O)O4)CC3)c2n1 [Example 109, (S)-3-(2,3-Dihydro-benzo[1,4]dioxin-6-yl)-5-[4-(6-methoxy-[1,5]naphthyridin-4-yl)-[1,4]diazepane-1-carbonyl]-oxazolidin-2-one]",,≤ 0.031
"COc1ccc2ncc(F)c(N3CC(NC[C@@H]4CN(c5ccc6c(c5)OCCO6)C(=O)O4)C3)c2n1 [Example 47, (R)-3-(2,3-Dihydro-benzo[1,4]dioxin-6-yl)-5-{[1-(3-fluoro-6-methoxy-[1,5]naphthyridin-4-yl)-azetidin-3-ylamino]-methyl}-oxazolidin-2-one]",,≤ 0.031
"COc1ccc2nccc(N3CC(CNC[C@@H]4CN(c5ccc6c(c5)NC(=O)CS6)C(=O)O4)C3)c2c1 [Example 186, 6-[(R)-5-({[1-(6-Methoxy-quinolin-4-yl)-azetidin-3-ylmethyl]-amino}-methyl)-2-oxo-oxazolidin-3-yl]-4H-benzo[1,4]thiazin-3-one]",,≤ 0.031
"CCCc1ccc(N2C[C@@H](CN(C)C3CN(c4ccnc5ccc(OC)nc45)C3)OC2=O)cc1 [Example 139, (R)-5-({[1-(6-Methoxy-[1,5]naphthyridin-4-yl)-azetidin-3-yl]-methyl-amino}-methyl)-3-(4-propyl-phenyl)-oxazolidin-2-one]",,≤ 0.031
"COc1ccc2nccc(N3CC[C@H](NC(=O)[C@@H]4CN(c5ccc(C)c(F)c5)C(=O)O4)C3)c2n1 [Example 63, (S)-3-(3-Fluoro-4-methyl-phenyl)-2-oxo-oxazolidine-5-carboxylic acid [(S)-1-(6-methoxy-[1,5]naphthyridin-4-yl)-pyrrolidin-3-yl]-amide]",,0.25
"COc1ccc2nccc(N3C[C@H]4CCN(C(=O)[C@@H]5CN(c6ccc7c(c6)OCCO7)C(=O)O5)[C@H]4C3)c2n1 (mixture of isomers) [Example 95, (S)-3-(2,3-Dihydro-benzo[1,4]dioxin-6-yl)-5-[(3aR*,6aR*)-5-(6-methoxy-[1,5]naphthyridin-4-yl)-hexahydro-pyrrolo[3,4-b]pyrrole-1-carbonyl]-oxazolidin-2-one]",,0.125
"COc1ccc2ncc(F)c(N3CCCN(C[C@@H]4CN(c5ccc6c(c5)NC(=O)CS6)C(=O)O4)CC3)c2n1 [Example 104, 6-{(R)-5-[4-(3-Fluoro-6-methoxy-[1,5]naphthyridin-4-yl)-[1,4]diazepan-1-ylmethyl]-2-oxo-oxazolidin-3-yl}-4H-benzo[1,4]thiazin-3-one]",,≤ 0.031
"COc1ccc2nccc(N3CCN(CC4CN(c5ccc(C)cn5)C(=O)O4)CC3)c2n1 (racemic) [Example 43, (RS)-5-[4-(6-Methoxy-[1,5]naphthyridin-4-yl)-piperazin-1-ylmethyl]-3-(5-methyl-pyridin-2-yl)-oxazolidin-2-one]",,1
"CCOc1ccc(N2C[C@@H](CN[C@H]3CCN(c4c(F)cnc5ccc(OC)nc45)C3)OC2=O)cc1 [Example 170, (R)-3-(4-Ethoxy-phenyl)-5-{[(S)-1-(3-fluoro-6-methoxy-[1,5]naphthyridin-4-yl)-pyrrolidin-3-ylamino]-methyl}-oxazolidin-2-one]",,0.25
"COc1ccc2nccc(N3C[C@H]4CCN(C[C@@H]5CN(c6ccc7c(c6)OCCO7)C(=O)O5)[C@H]4C3)c2n1 (mixture of isomers) [Example 94, (R)-3-(2,3-Dihydro-benzo[1,4]dioxin-6-yl)-5-{[(3aR*,6aR*)-5-(6-methoxy-[1,5]naphthyridin-4-yl)-hexahydro-pyrrolo[3,4-b]pyrrol-1-yl]-methyl}-oxazolidin-2-one]",,2
"COc1ccc2nccc(N3CCC(NC[C@@H]4CN(c5ccc6c(c5)NC(=O)CS6)C(=O)O4)CC3)c2n1 [Example 119, 6-((R)-5-{[1-(6-Methoxy-[1,5]naphthyridin-4-yl)-piperidin-4-ylamino]-methyl}-2-oxo-oxazolidin-3-yl)-4H-benzo[1,4]thiazin-3-one]",,≤ 0.031
"COc1ccc2nccc(N3CCN(CC4CN(c5ccc6c(n5)NC(=O)CO6)C(=O)O4)CC3)c2n1 (racemic) [Example 113, (RS)-6-{5-[4-(6-Methoxy-[1,5]naphthyridin-4-yl)-piperazin-1-ylmethyl]-2-oxo-oxazolidin-3-yl}-4H-pyrido[3,2-b][1,4]oxazin-3-one]",,≤ 0.031
"COc1ccc2nccc(N3CC(NC(=O)C[C@@H]4CN(c5ccc6c(c5)NC(=O)CS6)C(=O)O4)C3)c2n1 [Example 115, N-[1-(6-Methoxy-[1,5]naphthyridin-4-yl)-azetidin-3-yl]-2-[(R)-2-oxo-3-(3-oxo-3,4-dihydro-2H-benzo[1,4]thiazin-6-yl)-oxazolidin-5-yl]-acetamide]",,1
"COc1ccc2nccc(N3CC[C@@H]4CN(C[C@@H]5CN(c6ccc7c(c6)NC(=O)CS7)C(=O)O5)C[C@@H]43)c2n1 (relative stereo) [Example 91, 6-{{(R)-5-[(3aR*,6aR*)-1-(6-Methoxy-[1,5]naphthyridin-4-yl)-hexahydro-pyrrolo[3,4-b]pyrrol-5-yl]-methyl}-2-oxo-oxazolidin-3-yl}-4H-benzo[1,4]thiazin-3-one]",<=0.031 mg/l,
"COc1ccc2cccc(N3CC(NC[C@@H]4CN(c5ccc6c(c5)NC(=O)CS6)C(=O)O4)C3)c2n1 [Example 158, 6-((R)-5-{[1-(2-Methoxy-quinolin-8-yl)-azetidin-3-ylamino]-methyl}-2-oxo-oxazolidin-3-yl)-4H-benzo[1,4]thiazin-3-one]",,≤ 0.031
